Test results as given in patent US5545667A, “Methods for treating neoplasms with betaines” (The Clorox Company, priority 1994, dated 1996).
Counter-ions that a name gives are not always drawn. Like-named read-outs stand apart in the source and are kept apart here.

Legend:
PAM 212 cells = assay: Cell growth inhibition assay (surfactants, 3-4 days, Coulter counter), PAM 212; format: cell-based, mouse
Method: (§1) Established cell lines are the system of choice for the prescreening of unknown compounds for antineoplastic activity. The tumor cell line screen works on the following principle. Cancer cells, if provided with enough nutrients, will grow unchecked in vitro, allowing researchers to grow many types of cancer cells outside the body. To perform an assay, standard amounts of the various cancer cells are placed in individual wells of a microtiter plate, and incubated with the potential antineoplastic compound of interest, for a sufficient period of time to allow for at least a 6-fold control growth, generally 1 to 5 days depending on cell origin. At the end of the incubation period, the cell lines are stained and assayed by a variety of means including, for example, proteins stains or a colorimeter for normal growth, growth inhibition or cytotoxicity. These assays measure a compound's ability to inhibit cell growth and a positive response of the compounds in these assays would be indicative of the therapeutic potential of these compounds. See, for example, the protocols and data presented in Laskin et al., (1979) Cancer Res 39:383-390 for 5-fluorouracil in mouse and human cells in culture.
(§2) A total of ten cell lines were used to evaluate the growth inhibitory potency of the various surfactants. In these studies, human, rat, mouse and bovine cells were used. A spectrum of different tumor cell types were used including those derived from keratinocytes (PAM 212), leukemias (HL-60, U-937 and K-562), an epitheloid carcinoma (HeLa) and melanoma (B-16). The B16 melanoma was used since this is a common cell type used to evaluate antimetastatic activity of test compounds. The effect of the surfactants on three fibroblast cell lines (C3H 10T1/2, NIH 3T3 and R6) were also evaluated for comparison to the tumor cell lines. The activity of the surfactants was also evaluated using pulmonary aortic endothelial cells for effectiveness as antiangiogenic agents.
(§3) PAM 212 cells are a mouse keratinocyte-derived tumor cell line. U-937 cells are a human histiocytic tumor cell line. HeLa cells are an epitheloid tumor cell line. Three murine fibroblast cells lines tested included the mouse fibroblast cell line, C3H 10T1/2, the rat fibroblast cell line R6, and the NIH 3T3 mouse fibroblast cell line. The human leukemia cell line HL-60 and the mouse melanoma B-16 cell were also tested. K-562 cells were from the American Type Culture Collection. All cells were grown in Dulbecco's modified Eagle's medium in a 37° C. incubator in an atmosphere of 5% CO2.
(§4) For growth inhibition assays, cells were seeded at low density (2.5×10^4 cells in 0.5 ml of culture medium) into 24-well tissue culture plates (Falcon Labware, Lincoln Park, N.J.). After 24 hours at 37° C., increasing concentrations (1 to 100 uM) of the surfactants were added to the cells in the culture plate. Control cultures were incubated in the absence of any surfactant. The cells were then incubated for 3-4 days to allow for growth. Cells from individual wells in the culture plate were then removed and duplicate samples taken for counting using a Coulter counter. To remove adherent cells the plates were treated with 0.25% trypsin/0.2% EDTA (GIBCO, Grand Island, N.Y.).

U-937 cells = assay: Cell growth inhibition assay, U-937; format: cell-based; conditions: Homo sapiens
Method: as §1, §2, §3, §4

HeLa cells = assay: Cell growth inhibition assay, HeLa; format: cell-based; conditions: read-out: IC50 (uM conc. inhibiting growth of the cells by 50%)
Method: as §1, §2, §3, §4

C3H 10T1/2 cells = assay: Cell growth inhibition assay, C3H 10T1/2; format: cell-based, mouse
Method: as §1, §2, §3, §4

HL-60 cells = assay: Cell growth inhibition assay, HL-60; format: cell-based, human
Method: as §1, §2, §3, §4

NIH 3T3 cells = assay: Cell growth inhibition assay, NIH 3T3; format: cell-based, mouse
Method: as §1, §2, §3, §4

K-562 cells = assay: Cell growth inhibition assay, K-562; format: cell-based; conditions: Homo sapiens
Method: as §1, §2, §3, §4

B-16 cells = assay: Cell growth inhibition assay, B-16 melanoma; format: cell-based, mouse
Method: as §1, §2, §3, §4

R6 cells = assay: Cell growth inhibition assay, R6; format: cell-based, rat; conditions: Fibroblast, read-out: IC50 (uM conc. inhibiting growth of the cells by 50%)
Method: as §1, §2, §3, §4

CPA-5 cells = assay: Cell growth inhibition assay, CPA-5 endothelial cells; format: cell-based, bovine; conditions: Bos taurus, read-out: IC50 (uM conc. inhibiting growth of the cells by 50%)
From the text: as §2, §3, §4
The compounds were tested as inhibitors of growth in the bovine aortic endothelial cell line CPA-5 as taught in Example 2 in order to evaluate the possibility that they may be anti-angiogenesis agents. A hallmark of angiogenesis is the outgrowth of endothelial cells which are required in the formation of new blood vessels. This process is a critical factor in the vascularization of tumors. Inhibition of neovascularization limits the growth of tumors and would be an effective means of treating cancer. FIG. 3 illustrates that three of the compounds, 8-3S, 12-5B and 12-1B, had no activity against the CPA-5 cell line in the concentration range tested (IC50 =>100 uM), while only relatively high concentrations of 12-3S (IC50 =70 uM) were effective in inhibiting the growth of CPA-5 cells. As indicated above, with several exceptions, these compounds were also not very effective in inhibiting the growth of each of the other cell types.

[1] = Critical micelle concentration (cmc); format: physicochemical
From the text: "Critical micelle concentration" or "cmc" refers to the point at which micelle formation begins.

ten cell lines = assay: Cell growth inhibition assays, panel of cell lines; format: cell-based, human, rat, mouse and bovine
From the text: as §2, §3, §4

battery of cell lines = conditions: 1988 report; cited from earlier work
liver = conditions: rats fed ethionine; cited from earlier work
[2] = PAM212, PAM 212 mouse keratinocyte-derived tumor cells, 3-4 days, read-out: IC50 (uM conc. inhibiting growth of the cells by 50%)
[3] = U-937, U-937 human histiocytic tumor cells, 3-4 days, read-out: IC50 (uM conc. inhibiting growth of the cells by 50%)
[4] = Homo sapiens, HeLa, HeLa cells, 3-4 days
[5] = C3H 10T1/2 mouse fibroblasts, 3-4 days, read-out: IC50 (uM conc. inhibiting growth of the cells by 50%)
[6] = HL-60 human leukemia cells, 3-4 days, read-out: IC50 (uM conc. inhibiting growth of the cells by 50%)
[7] = NIH3T3, NIH 3T3 mouse fibroblasts, 3-4 days, read-out: IC50 (uM conc. inhibiting growth of the cells by 50%)
[8] = K562, K-562 leukemia cells, 3-4 days, read-out: IC50 (uM conc. inhibiting growth of the cells by 50%)
[9] = B16, B-16 mouse melanoma cells, 3-4 days, read-out: IC50 (uM conc. inhibiting growth of the cells by 50%)
[10] = CPA-5 bovine aortic endothelial cells, 3-4 days
[11] = U-937, read-out: IC50 (uM conc. inhibiting growth of the cells by 50%)
[12] = Mus musculus, C3H 10T1/2, read-out: IC50 (uM conc. inhibiting growth of the cells by 50%)
[13] = Homo sapiens, HL-60, read-out: IC50 (uM conc. inhibiting growth of the cells by 50%)
[14] = Mus musculus, NIH3T3, read-out: IC50 (uM conc. inhibiting growth of the cells by 50%)
[15] = K562, read-out: IC50 (uM conc. inhibiting growth of the cells by 50%)
[16] = Mus musculus, B16, read-out: IC50 (uM conc. inhibiting growth of the cells by 50%)

Row | Compound | IC50 (U-937 cells; [3]) [µM] | IC50 (HeLa cells; [4]) [µM] | IC50 (HL-60 cells; [6]) [µM] | IC50 (K-562 cells; [8]) [µM] | IC50 (B-16 cells; [9]) [µM] | cmc [1] | IC50 (PAM 212 cells; [2]) [µM] | IC50 (C3H 10T1/2 cells; [5]) [µM] | IC50 (NIH 3T3 cells; [7]) [µM] | IC50 (R6 cells; R6 rat fibroblasts, 3-4 days) [µM] | IC50 (CPA-5 cells; [10]) [µM] | further results
1 | CCCCCCCCCCCC[N+](C)(C)CC(=O)[O-] [12-1B, N-(carboxymethyl)-N,N-dimethyl-1-dodecanaminium hydroxide inner salt] | – | – | – | – | – | 2,400 uM | – | – | – | – | – | IC50 (U-937 cells; [11]): > 100 µM; IC50 (HeLa cells; Homo sapiens, HeLa): 39 µM; IC50 (C3H 10T1/2 cells; [12]): > 100 µM; IC50 (HL-60 cells; [13]): 37 µM; IC50 (NIH 3T3 cells; [14]): > 100 µM; IC50 (K-562 cells; [15]): 19 µM; IC50 (B-16 cells; [16]): 90 µM; IC50 (R6 cells; Rattus norvegicus): > 100 µM; IC50 (CPA-5 cells): > 100 µM; inhibition and toxicity at the concentrations tested (battery of cell lines): inhibitory and toxic
2 | CCCCCCCCCCCCCCCC[N+](C)(C)CC(=O)[O-] [16-1B, N-(carboxymethyl)-N,N-dimethyl-1-hexadecanaminium hydroxide inner salt] | – | – | – | – | – | 14 µM | – | – | – | – | – | IC50 (PAM 212 cells; Mus musculus, PAM212, read-out: IC50 (uM conc. inhibiting growth of the cells by 50%)): 50 µM; IC50 (U-937 cells; [11]): 23 µM; IC50 (HeLa cells; Homo sapiens, HeLa): 16 µM; IC50 (C3H 10T1/2 cells; [12]): 54 µM; IC50 (HL-60 cells; [13]): 8 µM; IC50 (NIH 3T3 cells; [14]): 60 µM; IC50 (K-562 cells; [15]): 32 µM; IC50 (B-16 cells; [16]): 52 µM; IC50 (R6 cells; Rattus norvegicus): 45 µM; IC50 (CPA-5 cells): 30 µM; activity against all of the cell lines tested (ten cell lines; growth inhibition): effective against all of the cell lines
3 | C[N+](C)(C)CC(=O)O [betaine] | – | – | – | – | – | – | – | – | – | – | – | prevention of chronic morphological changes in the liver, including cancer formation (liver): relatively effective in preventing chronic morphological changes in the liver, including cancer formation

Now from value to compound, other results behind:

Row | IC50 (U-937 cells; [3]) [µM] | IC50 (HeLa cells; [4]) [µM] | IC50 (HL-60 cells; [6]) [µM] | IC50 (K-562 cells; [8]) [µM] | IC50 (B-16 cells; [9]) [µM] | cmc [1] | Compound | IC50 (PAM 212 cells; [2]) [µM] | IC50 (C3H 10T1/2 cells; [5]) [µM] | IC50 (NIH 3T3 cells; [7]) [µM] | IC50 (R6 cells; R6 rat fibroblasts, 3-4 days) [µM] | IC50 (CPA-5 cells; [10]) [µM] | further results
4 | > 100 | > 100 | > 100 | > 100 | > 100 | 200,000 uM | CCCCCCCC[N+](C)(C)CCCS(=O)(=O)[O-] [8-3S, N-octyl-N, N-dimethyl-3-ammonio-1-propanesulfonate] | > 100 | > 100 | > 100 | 78 | > 100 | IC50 (ten cell lines; all / all other cell lines tested, read-out: IC50 over the cell lines tested (range or bound)): > 100 µM
5 | > 100 | 68 | 9.3 | > 100 | > 100 | 2,200 uM | CCCCCCCCCCCC[N+](C)(C)CCCS(=O)(=O)[O-] [12-3S, N-dodecyl-N,N-dimethyl-3-ammonio-1-propanesulfonate] | 3 | 6.5 | > 100 | 45 | 70 | IC50 (HeLa cells; HeLa cells, 3-4 days): 58 µM; inhibition and toxicity at the concentrations tested (battery of cell lines): noninhibitory and nontoxic
6 | > 100 | 75 | 11 | > 100 | > 100 | 5,100 uM | CCCCCCCCCCCC[N+](C)(C)CCCCCC(=O)[O-] [12-5B, N-(5-carboxypentyl)-N,N-dimethyl-1-dodecanaminium hydroxide inner salt] | 60 | > 100 | > 100 | 78 | > 100 | –
7 | 6 | 2.2 | 1.6 | 15 | 54 | 28 µM | CCCCCCCCCCCCCCCC[N+](C)(C)CCCS(=O)(=O)[O-] [16-3S, N-hexadecyl-N,N-dimethyl-3-ammonio-1-propanesulfonate] | 7.5 | 3.3 | 40 | 14 | 17 | –
